The test system of one experiment is Tenebrio molitor L. Nature of the experiment: Tenebrio test (topical application to pupae, morphological inhibition of adult characters). Format: in vivo, Tenebrio molitor L (yellow mealworm). Conditions: Table I; topical, acetone solution, 0.5 to 2 hours old pupae (150 mg), 27° C, 70% RH. Here is the method:
(§1) The biological tests are examplified by tests on the yellow mealworm, Tenebrio molitor L, Galleria mellonella L, Culex pipiens L, Aedes aegypti L and Drosophila melanogaster L.
Tenebrio test: The material in question is applied topically to the abdomen of 0.5 to 2 hours old pupae of the said species, as a solution in acetone. The pupae are held at 27° C and 70% RH, ecdysis occuring 5 to 7 days later. The degree of inhibition of adult characters is referred to an arbitrary scale, where a morphologically perfect adult is given the character 0%, and a perfect second pupae 100%. In Table 1 is given the morphological inhibition dose 50% (ID 50 morph.) for some of the chemicals invented, in μg per standard pupa (150 mg). ID 50 morph. refers to specimens showing predominantly adult characters in the front part, pupal characters in the abdomen.
ID50 morph is as said above the dose causing development of individuals showing predominantly adult characters in the front part and pupal characters in the abdomen. It is known that ID50 -doses in general are 10 times greater than ED50 -doses.

A further experiment deals with Aedes aegypti L. Nature of the experiment: Aedes test (same test as for Culex). Format: in vivo. The following applies: Table I, mature larvae, loss of 50% of test animals, read-out: IC-50 eclos. As to the method:
as §1
Culex test: The compounds are tested on mature larvae. The concentration (IC-50 eclos.) is given in ppm.
Aedes test: The same test as for Culex.

Experiment [1] concerns Drosophila melanogaster L. Kind of experiment: Drosophila test (compound in agar based food, pupae which fail in ecdysis). Format: in vivo. The following applies: Table I, in artificial agar based food, pupae failing in ecdysis. As to the method: as §1
Drosophila test: One ml of acetone solution of the compound to be tested is mixed with an artificial agar based food mixture just before this solidifies. Ten less than one day old adult flies -- five of each sex -- are added, and all abnormalities observed for two generations. Juvenile hormone activity is especially noted in the pupae which fail in ecdysis. EC50 -eclos. is given in ppm.

In the next experiment the test system is Culex pipiens L. Nature of the experiment: Culex test (mature larvae, loss of 50% of test animals). Format: in vivo. The following applies: Table I, read-out: IC-50 eclos. As to the method: The biological tests are examplified by tests on the yellow mealworm, Tenebrio molitor L, Galleria mellonella L, Culex pipiens L, Aedes aegypti L and Drosophila melanogaster L. Culex test: The compounds are tested on mature larvae. The concentration (IC-50 eclos.) is given in ppm.

Another experiment deals with Tenebrio. The following applies: Table II, known compounds; dose causing abnormal development of 50% of treated pupae; data from Nature, Vol. 232, Aug. 13, 1971; cited from earlier work.

Compound `CCc1ccc(OCC=C(C)CCC2OC2(C)CC)cn1` (stereo not shown) [Compound 30, 6,7-Epoxy-3,7-dimethyl-1l-(6'-ethyl-3'-pyridyloxy)-2l-nonene] yielded an ID-50 morph. with Tenebrio molitor L of 0.0003 μg/pupa. Besides, in the experiment with Aedes aegypti L, the IC50 (inhibition of eclosion) turned out to be 0.5 µg/mL. This compound yielded an EC-50 eclos in experiment [1] of over 100 ppm. For the same compound, the IC50 for inhibition of adult emergence (eclosion) in the experiment with Culex pipiens L was under 10 µg/mL.
`CCc1ccc(OCCC(C)CCC2OC2(C)C)cn1` (stereo not shown) [Compound 38, 6,7-Epoxu-3,7-dimethyl-1l-(6'-ethyl-3'-pyridyloxy)-octane] returned an ID-50 morph. in the experiment with Tenebrio molitor L of 0.005 μg/pupa. For the same compound, the IC50 (inhibition of eclosion) with Aedes aegypti L is under 1 µg/mL. This compound showed an EC-50 eclos in experiment [1] of over 100 ppm. Moreover, the IC50 for inhibition of adult emergence (eclosion) in the experiment with Culex pipiens L was under 10 µg/mL.
With `CCOC(C)(C)CCCC(C)CCOc1ccc(CC)nc1` (stereo not shown) [Compound 39, 7-Ethoxy-3,7-dimethyl-1l-(96'-ethyl-3'-pyridyloxy)-octane], in the experiment with Tenebrio molitor L, the ID-50 morph. amounted to 0.01 μg/pupa. Besides, in the experiment on Aedes aegypti L, the IC50 (inhibition of eclosion) worked out at 0.5 µg/mL. In experiment [1], this compound gave an EC-50 eclos of over 100 ppm. Besides, the IC50 for inhibition of adult emergence (eclosion) with Culex pipiens L was under 10 µg/mL.
`C/C(=C\COc1ccc(C)cc1)CCC1OC1(C)C` (stereo not shown) [R CH3, n 1]: the ED50 in the experiment with Tenebrio is 0,05 μg/pupa.
